{
  "source": "paper PMC6154745",
  "about": "(Oncotarget, 2018)",
  "key": {"[1]": {"system": "lung DNA", "experiment": "8-oxo-dGuo (oxidative DNA damage) in lung by 32P postlabeling, Study 1", "format": "in vivo, Swiss H mice", "conditions": "for 8-oxo-dGuo: lung", "protocol": "(§1) Each group was composed of 10 female mice.\n(§2) DNA was extracted from tissue specimens (50 mg) collected individually from the lungs of 40 Swiss H mice used in Study 1 and from lungs, heart and liver of 80 ICR (CD-1) mice used in Study 2, as previously described. Bulky DNA adducts, after butanol enrichment, and 8-hydroxy-2’-deoxyguanosine (8-oxo-dGuo) were measured by ^32P postlabeling as previously described."}, "[2]": {"system": "blood serum miRNAs", "experiment": "miRNA expression (microarray), Study 3, blood serum", "format": "in vivo, ICR (CD-1) mice", "protocol": "as §1\n(§3) The urine was collected for 8 h and pooled from the mice belonging to each experimental group in Study 3 by using metabolic cages during the day preceding euthanasia of mice. Immediately after sacrifice, a bronchoalveolar lavage (BAL) was performed and used for preparing BALF, and the blood was collected and used for preparing serum. BALF and blood serum were pooled within each experimental group. The organs reported in the general design of the studies were collected, as previously described. Immediately after collection, each organ or fluid was immersed in RNAlater and kept at -80°C for miRNA analysis. Portions of the organs used in Study 1 and Study 2 were stored at -80°C for evaluating DNA damage.\n(§4) For evaluating the expression of pulmonary miRNAs we used the 7th generation miRCURY LNA™ microRNA Array (Exiqon), which contains 3,100 capture probes covering human, mouse and rat miRNAs. In particular, this array covers 1,135 mouse miRNAs, i.e. the 88.6% of the 1,281 mouse miRNAs listed in miRBase 19. Microarray analyses were carried out as previously described.\n(§5) Treatment-related differences in body weights, in the frequency of MN NCE, and in the levels of pulmonary DNA adducts and 8-oxo-dGuo, all of them expressed as means ± SE within each group of mice, were evaluated for statistical significance by ANOVA followed by Student's t test for unpaired data. miRNA microarray data, after local background subtraction, log transformation, and normalization were analyzed by GeneSpring software (Agilent, Santa Clara, CA), and expression data were median centered by using the GeneSpring normalization option."}, "[3]": {"system": "lung DNA", "experiment": "Bulky DNA adducts in lung by 32P postlabeling, Study 1", "format": "in vivo, Swiss H mice", "protocol": "as §1, §2"}, "[4]": {"system": "normochromatic erythrocytes", "experiment": "Systemic genotoxicity: frequency of MN NCE in peripheral blood", "format": "in vivo, Swiss H mice", "set-up": "unit not given here"}, "[5]": {"system": "lung miRNAs", "experiment": "miRNA expression (microarray), Study 3, lung", "format": "in vivo, ICR (CD-1) mice", "protocol": "as §1, §3, §4, §5"}, "[6]": {"experiment": "Body weight, Study 3", "format": "in vivo, ICR (CD-1) mice", "conditions": "in g", "from_the_text": "as §1\n(§6) Strain H neonatal mice, used in Study 1, were born at the Animal Laboratory of the National Center of Oncology (Sofia, Bulgaria). The mice were housed in Makrolon™ cages on sawdust bedding and maintained on standard rodent chow (Kostinbrod, Bulgaria) and allowed drinking water ad libitum. Swiss ICR (CD-1) mice, either neonatal (Study 2) or two- month old (Study 3), were purchased from Harlan Laboratories (San Pietro al Natisone, Udine, Italy). The mice were housed in Makrolon™ cages on sawdust bedding and maintained on standard rodent chow (Teklad 9607, Harlan Laboratories) and tap water ad libitum. The animal room temperature was 23 ± 2°C, with a relative humidity of 55% and a 12 h day-night cycle. Housing and treatments of mice were in accordance with NIH, European (2010/63 UE Directive), and institutional guidelines. The issuance of the NIH Office of Laboratory Animal Welfare (OLAW) with the University of Genoa bears the identification number A5899-01 and is effective until February 28, 2021. The Institutional Animal Care and Use Committee (IACUC) protocol was approved by the Fox Chase Cancer Center Committee on April 13, 2015.\nCelecoxib was supplied by the US National Cancer Institute (NCI) via MRIGlobal (Kansas City, MO).\n(§7) In Study 1 and Study 2, feeding of the drug-containing diet started after weanling (about 4 weeks) and continued until the 10th week of life.\nas §5"}, "[7]": {"conditions": "mice, 1,000 mg/kg diet; cited from earlier work"}, "[8]": {"system": "skeletal muscle miRNAs", "experiment": "miRNA expression (microarray), Study 3, skeletal muscle", "format": "in vivo, ICR (CD-1) mice", "protocol": "as §1, §3, §4, §5"}, "[9]": {"experiment": "Body weight, Study 1", "format": "in vivo, Swiss H mice", "conditions": "after 10 weeks", "from_the_text": "as §6, §7, §5"}, "[10]": {"conditions": "females, MCS-exposed mice given celecoxib"}, "[11]": {"conditions": "males, MCS-exposed mice given celecoxib"}, "[12]": {"conditions": "low dose (20 mg/kg diet) vs sham"}},
  "note": "Marks after values point to notes of the source that are not given here.",
  "data": [
    {"smiles": "Cc1ccc(-c2cc(C(F)(F)F)nn2-c2ccc(S(N)(=O)=O)cc2)cc1", "note": "[Celecoxib, 4-[5-(4-methylphenyl)-3-(trifluoromethyl)-1H-pyrazol-1-yl] benzene-1-sulfonamide]", "values": [
      {"measurement": "8-oxo-dGuo", "setting": "[1]; F", "result": "2.3 ± 0.28 8-oxo-dGuo/10^5 nucleotides"},
      {"measurement": "8-oxo-dGuo", "setting": "[1]; M", "result": "1.6 ± 0.29 8-oxo-dGuo/10^5 nucleotides"},
      {"measurement": "8-oxo-dGuo", "setting": "[1]; M + F", "result": "1.9 ± 0.22 8-oxo-dGuo/10^5 nucleotides"},
      {"measurement": "increase of pulmonary 8-oxo-dGuo levels vs sham-exposed mice", "setting": "[1]; mouse, in vivo", "result": "did not affect"},
      {"measurement": "upregulated/downregulated miRNAs", "setting": "[2]; blood serum, MCS-exposed mice", "result": "2/3"},
      {"measurement": "miR-1964-5p downregulation", "setting": "[2]; blood serum, MCS-free mice", "result": 8, "unit": "fold"},
      {"measurement": "upregulated/downregulated miRNAs", "setting": "[2]; blood serum, MCS-free mice", "result": "2/11"},
      {"measurement": "number of miRNAs modulated by celecoxib", "setting": "[2]; blood serum, high dose", "result": 18},
      {"measurement": "number of miRNAs modulated", "setting": "[2]; blood serum, low dose", "result": 2},
      {"measurement": "miR30c-5p downregulation", "setting": "[2]; blood serum, low dose (20 mg/kg diet) vs sham", "result": 2.9, "unit": "fold"},
      {"measurement": "miR-185 downregulation", "setting": "[2]; blood serum, low dose (20 mg/kg diet), compared to MCS-exposed mice", "result": 2.1, "unit": "fold"},
      {"measurement": "number of miRNAs modulated", "setting": "[2]; blood, high dose", "result": 11},
      {"measurement": "increase of pulmonary DNA adducts vs sham-exposed mice", "setting": "[3]; MCS-exposed mice given celecoxib", "result": 8.5, "unit": "fold"},
      {"measurement": "increase of pulmonary DNA adducts vs sham-exposed mice", "setting": "[3]; combined genders", "result": 3.3, "unit": "fold"},
      {"measurement": "Bulky DNA adducts", "setting": "[3]; lung, F", "result": "4.3 ± 0.34^b adducts/10^8 nucleotides"},
      {"measurement": "Bulky DNA adducts", "setting": "[3]; lung, M", "result": "4.3 ± 0.40^b adducts/10^8 nucleotides"},
      {"measurement": "Bulky DNA adducts", "setting": "[3]; lung, M + F", "result": "4.3 ± 0.25^b adducts/10^8 nucleotides"},
      {"measurement": "autoradiographic spots absent in sham-exposed mice", "setting": "[3]; lung, MCS-free mice", "result": 3},
      {"measurement": "frequency of MN NCE", "setting": "[4]; females, 4 months of age", "result": "0.8 ± 0.08"},
      {"measurement": "frequency of MN NCE", "setting": "[4]; [10]", "result": "1.2 ± 0.08"},
      {"measurement": "frequency of MN NCE", "setting": "[4]; males, 4 months of age", "result": "1.4 ± 0.12"},
      {"measurement": "frequency of MN NCE", "setting": "[4]; [11]", "result": "2.2 ± 0.15"},
      {"measurement": "miR-361 upregulation", "setting": "[5]", "result": 8, "unit": "fold"},
      {"measurement": "upregulated/downregulated miRNAs", "setting": "[5]; MCS-exposed mice", "result": "0/1"},
      {"measurement": "upregulated/downregulated miRNAs", "setting": "[5]; MCS-free mice", "result": "14/0"},
      {"measurement": "number of miRNAs modulated by celecoxib", "setting": "[5]; high dose", "result": 15},
      {"measurement": "number of miRNAs modulated", "setting": "[5]; low dose", "result": 3},
      {"measurement": "miR-296 upregulation", "setting": "[5]; [12]", "result": 2.4, "unit": "fold"},
      {"measurement": "miR-551b upregulation", "setting": "[5]; [12]", "result": 2.2, "unit": "fold"},
      {"measurement": "miR185 downregulation", "setting": "[5]; low dose (20 mg/kg diet), compared to MCS-exposed mice", "result": 2.8, "unit": "fold"},
      {"measurement": "body weight", "setting": "[6]; females, MCS-exposed, high dose celecoxib", "result": "26.7 ± 0.56"},
      {"measurement": "body weight", "setting": "[6]; females, MCS-exposed, low dose celecoxib", "result": "30.9 ± 1.24"},
      {"measurement": "body weight", "setting": "[6]; females, smoke-free, high dose (1,600 mg/kg diet)", "result": "31.5 ± 0.98"},
      {"measurement": "body weight", "setting": "[6]; females, smoke-free, low dose (20 mg/kg diet)", "result": "32.6 ± 1.82"},
      {"measurement": "body weight", "setting": "[6]; males, smoke-free, high dose (1,600 mg/kg diet)", "result": "42.1 ± 0.61"},
      {"measurement": "plasma concentration", "setting": "[7]", "result": 1600, "unit": "ng/mL"},
      {"measurement": "miR-30e upregulation", "setting": "[8]; MCS-exposed mice", "result": 9, "unit": "fold"},
      {"measurement": "miR-125b downregulation", "setting": "[8]; MCS-exposed mice", "result": 11, "unit": "fold"},
      {"measurement": "miR-511 upregulation", "setting": "[8]; MCS-exposed mice", "result": 5, "unit": "fold"},
      {"measurement": "miR-695 downregulation", "setting": "[8]; MCS-exposed mice", "result": 6, "unit": "fold"},
      {"measurement": "miR-1964-5p downregulation", "setting": "[8]; MCS-exposed mice", "result": 5, "unit": "fold"},
      {"measurement": "upregulated/downregulated miRNAs", "setting": "[8]; MCS-exposed mice", "result": "6/10"},
      {"measurement": "upregulated/downregulated miRNAs", "setting": "[8]; MCS-free mice", "result": "0/0"},
      {"measurement": "number of miRNAs modulated by celecoxib", "setting": "[8]; high dose", "result": 16},
      {"measurement": "body weight", "setting": "[9]; [10]", "result": "26.7 ± 0.56", "unit": "g"},
      {"measurement": "body weight", "setting": "[9]; females", "result": "27.8 ± 0.80", "unit": "g"},
      {"measurement": "body weight", "setting": "[9]; [11]", "result": "34.6 ± 1.55", "unit": "g"},
      {"measurement": "body weight", "setting": "[9]; males", "result": "37.2 ± 0.97", "unit": "g"}
    ]}
  ]
}
